# According to patent publication US7977375B2, “Antibiotic and method of production thereof” (Helmholtz-Zentrum Für Infektionsforschung GmbH, priority 2004, dated 2011):
# What was measured:
# [1] = tested on: Staphylococcus aureus MRSA 3; assay: kinetics of growth at sub-MIC concentrations (FIG. 1B); format: cell-based; settings: 1 or 4 μg/ml
# Procedure: Investigation of the bacteriostatic activity of 7-O-malonyl macrolactin A required testing the effects of sub-MIC concentrations. […] 24 hours after treatment, the titre of viable cells was reduced by a factor of 100 as compared to the control without 7-O-malonyl macrolactin A.
# (§1) • FIG. 1A y-axis: Log CFU (Colony Forming Units) Cells/ml • x-axis: Time (HRS) • FIG. 1B y-axis: Log CFU (Colony Forming Units) Cells/ml • x-axis: Time (HRS) • FIG. 1C: y-axis: Log CFU (Colony Forming Units) Cells/ml • x-axis: Time (HRS) • FIG. 1D: y-axis: Log CFU (Colony Forming Units) Cells/ml • x-axis: Time (HRS) • FIG. 1E: y-axis: Log CFU (Colony Forming Units) Cells/ml • x-axis: Time (HRS) • FIG. 1F: y-axis: Log CFU (Colony Forming Units) Cells/ml • x-axis: Time (HRS) • FIG. 5A: y-axis: % Inhibition • x-axis Concentration μg/ml • FIG. 5B: y-axis: % Inhibition • x-axis Concentration μg/ml
# [2] = tested on: Candida parapsilosis DSM5784; assay: MIC / MBC in liquid culture; format: cell-based; settings: Lodderomyces parapsilosis, read-out: MIC (minimal inhibitory concentration)
# [3] = tested on: B. cepacia SCV 141; assay: agar diffusion method, inhibition zone; format: cell-based, Burkholderia cepacia; settings: 18 hours at 37° C., per disk 10 μl crude extract, 50 μg macrolactin, 78 μg erythromycin, 10 μg ampicillin
# Procedure: The agar diffusion method employing Mueller-Hinton (MH) agar (Difco Laboratories) was used to determine effectiveness against bacteria and yeasts. Sterile paper disks (Schleicher & Schüell, Germany) were seeded with 10 μl crude extract or with a solution of purified macrolactin (final compound concentration on the disk 50 μg) and then placed on the surface of MH-agar plates that had been seeded beforehand with a suspension of overnight culture of the test microorganisms at a concentration of 10^5 cells/ml.
# The B. cepacia strain used, which is a clinical isolate from a cystic fibrosis patient, forms small colonies (SCV 141).
# [4] = tested on: Burkholderia cepacia SCV 141; assay: kinetics of growth (FIG. 1F); format: cell-based; settings: B. cepacia SCV 141; 32 μg/ml
# Description: as §1
# [5] = tested on: MRSA 2; assay: MIC / MBC in liquid culture; format: cell-based, Staphylococcus aureus; settings: MRSA 2
# [6] = tested on: E. faecalis VRAS E305; assay: MIC / MBC in liquid culture; format: cell-based, Enterococcus faecalis; settings: E. faecalis VRAS E305
# [7] = tested on: E. faecium VRAR E315; assay: electron microscopy of cell division (FIG. 3); format: cell-based, Enterococcus faecium; settings: 16 μg/ml, 4 hours
# Procedure: FIG. 3 a) to c) are electron microscope photographs of E. faecium VRAR E315 after 4 hours growth without antibiotic and d), e) and f) in the presence of 16 μg/ml 7-O-malonyl macrolactin A;
# It is thought that 7-O-malonyl macrolactin A inhibits the division of bacterial cells, which interrupts the proliferation thereof.
# The effect of 7-O-malonyl macrolactin A on cell division can also be observed from the electron microscope photographs of Enterococcus faecium (VRAR=vancomycin-resistant, ampicillin-resistant, E315, clinical isolate) shown in FIG. 3. The division planes of the untreated cells after 4 hours growth without antibiotic appear as light regions in FIGS. 3a), b) and c). […] In this example, however, no fully formed cell division planes are evident. The initiation of asymmetrical cell division is indicated by the small black arrowheads.
# [8] = tested on: L929 mouse fibroblast cells; assay: inhibition of proliferation, CyQUANT cell proliferation test; format: cell-based; settings: Mus musculus, L929, 120 h, 5 days
# Procedure: (§2) The cytotoxicity of 7-O-malonyl macrolactin A was compared to that of 7-O-succinyl macrolactin A and macrolactin A in vitro with respect to the inhibition of the proliferation of L929 mouse fibroblast cells or the human epithelial cell line HeLa.
# (§3) For the cell culture, the HeLa cells were cultivated in low-glucose DMEM medium (Gibco), and the L929 cells in high-glucose DMEM medium. Both were supplemented with 10% by volume foetal calf serum (Gibco) at 37° C. in an atmosphere containing 5% CO2. The cells were extracted from stock cultures by means of trypsinization with EDTA (HeLa) or without EDTA (L929), then counted and diluted to 2×10^5 cells/ml. For the tests, microtitre plates (Nunc.) comprising 96 depressions were plated out in serial dilution without or in the presence of the test compounds or methanol. Determination of morphological alterations of the cells was carried out by means of phase contrast microscopy after 1, 2 and 5 days incubation.
# (§4) After 5 days cultivation, cell counts were determined by the CyQUANT cell proliferation test (Molecular Probes), which is a highly sensitive microtitre plate test based on fluorescence. The test employs the dye CyQUANT, which, by binding to cellular nucleic acids, enhances fluorescence, which can then be measured by fluorescein excitation. The emission of fluorescence by the dye-nucleic acid complex correlated linearly with the cell count. For test purposes, the residue was carefully removed after 5 days incubation, the cells washed with PBS (phosphate buffered saline solution), the buffer removed and the cells frozen at −80° C. For the test, the cells were thawed at ambient temperature and lysated in a buffered solution containing the dye CyQUANT, in accordance with manufacturer's instructions. Fluorescence was measured by means of a fluormetric microtitre-plate reader (Titertex Fluorskan II) (excitation at 480 nm, emission at 520 nm). The […] were used to calculate the percentage of cellular proliferation in medium both alone and in the presence of serial dilutions of methanol and the macrolactin compounds. […] Proliferation was measured by means of the fluorescence-based test CyQUANT for determining viable cell counts. Table 5 illustrates the relative inhibition of proliferation as compared to a control culture comprising fresh medium without the addition of a macrolactin.
# [9] = tested on: human epithelial cell line HeLa; assay: as above; format: cell-based
# Procedure: as §2, §3, §4
smiles,measurement,setting,value
CC1CCC/C=C/C=C/C(O)CC(O)C/C=C\C=C\C(OC(=O)CC(=O)O)C/C=C/C=C\C(=O)O1 (stereo not shown) [7-O-malonyl macrolactin A],"titre of viable cells reduced by a factor, compared to control",[1]; 24 hours after treatment,100
same,effect on kinetics of growth,[1]; after 4 hours,almost completely inhibited
same,MIC,[2],128 µg/mL
same,zone of inhibition at 50 µg/disc,"[3]; Burkholderia cepacia, SCV141, MH agar",15 mm
same,Inhibition zone,[3]; MH agar,produced an inhibition zone
same,growth inhibited by a factor,[4],≤ 10
same,MIC (minimal inhibitory concentration),[5],>128 µg/mL
same,MBC,"[5]; Staphylococcus aureus, pronounced inhibition of growth, read-out: MBC (minimal bacteriostatic or fungistatic concentration)",4 µg/mL
same,MIC,"[5]; Staphylococcus aureus, read-out: MIC (minimal inhibitory concentration)",> 128 µg/mL
same,MIC (minimal inhibitory concentration),[6],>128 µg/mL
same,MBC,"[6]; Enterococcus faecalis, VRASE305, read-out: MBC (minimal bacteriostatic or fungistatic concentration)",0.06 µg/mL
same,MIC,"[6]; Enterococcus faecalis, VRASE305, read-out: MIC (minimal inhibitory concentration)",> 128 µg/mL
same,"effect on cell division, electron microscope",[7],"anomalous, asymmetrical cell division is being initiated"
same,inhibition at 3.9 µg/mL,[8]; compound concentration 3.9 μg/ml,0%
same,inhibition at 7.8 µg/mL,[8]; compound concentration 7.8 μg/ml,0%
same,inhibition at 15.6 µg/mL,[8]; compound concentration 15.6 μg/ml,~32%
same,inhibition at 31.25 µg/mL,[8]; compound concentration 31.25 μg/ml,80%
same,inhibition at 56.5 µg/mL,[8]; compound concentration 56.5 μg/ml,86%
same,inhibition at 125 µg/mL,[8]; compound concentration 125 μg/ml,84%
same,Inhibition of proliferation,"[9]; 62.5 μg/ml, CyQUANT test",practically complete inhibition of growth
same,inhibition at 3.9 µg/mL,"[9]; Homo sapiens, 120 h, compound concentration 3.9 μg/ml, 5 days",0%
same,inhibition at 7.8 µg/mL,"[9]; Homo sapiens, 120 h, compound concentration 7.8 μg/ml, 5 days",0%
same,inhibition at 15.6 µg/mL,"[9]; Homo sapiens, 120 h, compound concentration 15.6 μg/ml, 5 days",0%
same,inhibition at 31.25 µg/mL,"[9]; Homo sapiens, 120 h, compound concentration 31.25 μg/ml, 5 days",62%
same,inhibition at 56.5 µg/mL,"[9]; Homo sapiens, 120 h, compound concentration 56.5 μg/ml, 5 days",93%
same,inhibition at 125 µg/mL,"[9]; Homo sapiens, 120 h, compound concentration 125 μg/ml, 5 days",100%
same,Inhibition of proliferation,"[9]; compound concentration 15.6 μg/ml, 5 days",failed to inhibit the proliferation
same,Inhibition of proliferation,"[9]; compound concentration 31.25 μg/ml, 5 days",capable of inhibiting the proliferation
